Laboratory results: PubChem BioAssay AID1963831 (Molecular Pharmacology Branch, DTP, NCI, 2024)

System: 889142-216-R-J1-PDC complex spheroid viability
Assay: Anticancer human tumor 889142-216-R-J1-PDC patient-derived bladder carcinoma cell line growth inhibition [POLQ]
Conditions: for IC50: curve of first compound; for viability, T/C: stronger effect = lower value
Protocol: Multicellular complex tumor spheroid response to Polymerase (POL) inhibitors (novobiocin, ART-558, RP6685) in combination with a variety of drugs and investigational agents in selected tumor cell lines
The POL inhibitors (novobiocin, ART-558, and RP6685) were evaluated both individually and in combination with standard of care and investigational anticancer small molecules within a complex spheroid model of solid tumors. . Complex spheroids include a stromal component modeled by human endothelial cells (HUVEC) and fibroblasts modeled by human mesenchymal stem cells (MSCs). The concentration ranges selected for each drug and investigational agent were based upon clinically achievable concentrations if the clinical Cmax of the agent was known.
Compounds. The drugs and investigational agents: novobiocin (NSC847541), ART-558 (NSC835418), RP-6685 (NSC848927), peposertib (NSC802822), ceralasertib (NSC780249), elimusertib (NSC800525), camonsertib (NSC841442), AZD-1390 (NSC803789), olaparib (NSC753686), talazoparib (NSC767125), rucaparib (NSC756644), sotorasib (NSC818433), MRTX-1133 (NSC836407), SN-38 (NSC673596), topotecan (NSC609699), epotoside (NSC141540), doxorubicin (NSC123127), gemcitabine (NSC613327), 5-fluorouracil (NSC19893), paclitaxel (NSC125973), vemurafenib (NSC761431), MSA-2 (NSC828583), SN-011 (NSC837082), adavosertib (NSC754352), prexasertib (NSC758257), carboplatin (NSC241240) and oxaliplatin (NSC266046), were obtained from the National Cancer Institute (NCI) Developmental Therapeutics Program Chemical Repository (21). The FDA-approved anticancer drug set is available from the Developmental Therapeutics Program at https://dtp.cancer.gov/organization/dscb/obtaining/. […] The stock solutions were prepared in dimethyl sulfoxide (DMSO, Sigma-Aldrich, St. Louis, MO, cat. D2650), except for the platinum compounds which were prepared in saline (Quality Biological, Gaithersburg, MD, cat. 114-055-101), at 800-fold the tested concentration and stored at -70 degrees C prior to their use. All drugs and investigational agents were tested over a range starting from a high concentration at or near the clinical Cmax and decreasing in half-log increments. If the clinical Cmax for an agent had not been determined, the highest concentration tested was 10 microM, except for SN-38, which was tested at a high concentration of 1 microM.
Cell Culture. All cells were maintained in an incubator at 37 degrees C and 5% CO2 with 95% humidity. The PDC lines were cultured according to standard operating procedures established by the NCI PDMR (https://pdmr.cancer.gov). Table 3 of the manuscript, lists the cell lines along with the number of the three cell types plated to form the mct-spheroids and media for tumor cell growth. After thawing, all PDC lines, except 997537-175-T-J1-PDC and 415267-285-R-J2-PDC, were cultured in Matrigel-coated flasks prepared with a working solution of 1X Ham's F-12 nutrient mix, without supplementation (Thermo Fisher Scientific, cat. 11765054), 100 U/mL penicillin-streptomycin (Thermo Fisher Scientific, cat. 15140122), and 2.5% Matrigel (Corning Inc., Corning, NY, cat. 354248) for the first three passages. The two PDC lines 997537-175-T-J1-PDC and 415267-285-R-J2-PDC were cultured on uncoated flasks. The 857933-349-R-J2-PDC line was cultured in 6C/Colon 1B media containing advanced DMEM/F-12 (Thermo Fisher Scientific, cat. 12634028), 10 mM HEPES (Thermo Fisher Scientific, cat. 15630080), 1X GlutaMAX supplement (Thermo Fisher Scientific, cat. 35050061), 0.1 mg/mL primocin (InvivoGen, San Diego, CA, cat. ant-pm-2), 10% defined fetal bovine serum, heat inactivated (HyClone Laboratories Inc., Logan, UT, cat. SH30070.03HI), 50% L-WRN conditioned media (ATCC, cat. CRL-3276), 1.25 mM N-Acetyl-L-cysteine (Sigma-Aldrich, cat. A9165), 10 mM nicotinamide (Sigma-Aldrich, cat. N0636), 1X B-27 supplement (Thermo Fisher Scientific, cat. 17504044), 1X N-2 supplement (Thermo Fisher Scientific, cat. […]

[1] = second compound 0.0316 µM, first compound 0.0316 µM
[2] = second compound 0.0316 µM, first compound 0.1 µM
[3] = second compound 0.0316 µM, first compound 0.316 µM
[4] = second compound 0.0316 µM, first compound 1 µM
[5] = second compound 0.0316 µM, first compound 3.16 µM
[6] = second compound 0.0316 µM, first compound 10 µM
[7] = second compound 0.1 µM, first compound 0.0316 µM
[8] = second compound 0.1 µM, first compound 0.1 µM
[9] = second compound 0.1 µM, first compound 0.316 µM
[10] = second compound 0.1 µM, first compound 1 µM
[11] = second compound 0.1 µM, first compound 3.16 µM
[12] = second compound 0.1 µM, first compound 10 µM
[13] = second compound 0.316 µM, first compound 0.0316 µM
[14] = second compound 0.316 µM, first compound 0.1 µM
[15] = second compound 0.316 µM, first compound 0.316 µM
[16] = second compound 0.316 µM, first compound 1 µM
[17] = second compound 0.316 µM, first compound 3.16 µM
[18] = second compound 0.316 µM, first compound 10 µM
[19] = second compound 1 µM, first compound 0.0316 µM
[20] = second compound 1 µM, first compound 0.1 µM
[21] = second compound 1 µM, first compound 0.316 µM
[22] = second compound 1 µM, first compound 1 µM
[23] = second compound 1 µM, first compound 3.16 µM
[24] = second compound 1 µM, first compound 10 µM
[25] = second compound 3.16 µM, first compound 0.0316 µM
[26] = second compound 3.16 µM, first compound 0.1 µM
[27] = second compound 3.16 µM, first compound 0.316 µM
[28] = second compound 3.16 µM, first compound 1 µM
[29] = second compound 3.16 µM, first compound 3.16 µM
[30] = second compound 3.16 µM, first compound 10 µM
[31] = second compound 10 µM, first compound 0.0316 µM
[32] = second compound 10 µM, first compound 0.1 µM
[33] = second compound 10 µM, first compound 0.316 µM
[34] = second compound 10 µM, first compound 1 µM
[35] = second compound 10 µM, first compound 3.16 µM
[36] = second compound 10 µM, first compound 10 µM
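Further: spheroids exposed to compounds for seven days.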
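Wherever viability, T/C is given: 100% = DMSO vehicle control viability.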

With CCCS(=O)(=O)Nc1ccc(F)c(C(=O)c2c[nH]c3ncc(-c4ccc(Cl)cc4)cc23)c1F + Cc1cccc(N(C)C(=O)C2C(O)CCN2c2nc(C)cc(C(F)(F)F)c2C#N)c1 the IC50 (second compound 0.0316 µM) was > 10 µM, the IC50 (second compound 0.1 µM) was > 10 µM and the IC50 (second compound 0.316 µM) was > 10 µM. It also gave an IC50 (second compound 1 µM) of 9.29 µM, an IC50 (second compound 3.16 µM) of 8.82 µM and an IC50 (second compound 10 µM) of 6.13 µM. It also gave a viability, T/C [1] of 100%, a viability, T/C [2] of 116% and a viability, T/C [3] of 98.7%. For the same molecule, the viability, T/C [4] was 105%, the viability, T/C [5] was 83.5% and the viability, T/C [6] was 50.5%. It also gave a viability, T/C [7] of 121%, a viability, T/C [8] of 101% and a viability, T/C [9] of 91%. The viability, T/C [10] was 96.5%, the viability, T/C [11] was 81.3% and the viability, T/C [12] was 48.8%. It also gave a viability, T/C [13] of 110%, a viability, T/C [14] of 86.7% and a viability, T/C [15] of 93.3%. For the same molecule, the viability, T/C [16] was 91.7%, the viability, T/C [17] was 72.1% and the viability, T/C [18] was 60.5%. For the same molecule, the viability, T/C [19] was 94.9%, the viability, T/C [20] was 91.1% and the viability, T/C [21] was 92.7%. It also gave a viability, T/C [22] of 90.5%, a viability, T/C [23] of 66.8% and a viability, T/C [24] of 48.9%. It also gave a viability, T/C [25] of 101%, a viability, T/C [26] of 96% and a viability, T/C [27] of 81.1%. The viability, T/C [28] was 79.2%, the viability, T/C [29] was 75.2% and the viability, T/C [30] was 44.9%. The viability, T/C [31] was 65.1%, the viability, T/C [32] was 86.2% and the viability, T/C [33] was 90.1%. It also gave a viability, T/C [34] of 66.3%, a viability, T/C [35] of 67% and a viability, T/C [36] of 38.5%.

For CC1COCCN1c1cc(C2(S(C)(=N)=O)CC2)nc(-c2ccnc3[nH]ccc23)n1 (centres undefined) + Nc1ccc(C#CCN(C(=O)Cc2ncc(C(F)(F)F)cc2C(F)(F)F)c2ccc(F)cc2)nn1, the IC50 (second compound 0.0316 µM) was 2.9 µM, the IC50 (second compound 0.1 µM) was 2.59 µM and the IC50 (second compound 0.316 µM) was > 10 µM. For the same molecule, the IC50 (second compound 1 µM) was > 10 µM, the IC50 (second compound 3.16 µM) was > 10 µM and the IC50 (second compound 10 µM) was > 10 µM. The viability, T/C [1] was 101%, the viability, T/C [2] was 82% and the viability, T/C [3] was 70.8%. The viability, T/C [4] was 59.3%, the viability, T/C [5] was 46.1% and the viability, T/C [6] was 45%. It also gave a viability, T/C [7] of 98%, a viability, T/C [8] of 89% and a viability, T/C [9] of 80.8%. The viability, T/C [10] was 56.1%, the viability, T/C [11] was 51.5% and the viability, T/C [12] was 42.4%. For the same molecule, the viability, T/C [13] was 89.5%, the viability, T/C [14] was 74.7% and the viability, T/C [15] was 81.8%. For the same molecule, the viability, T/C [16] was 60.9%, the viability, T/C [17] was 48.9% and the viability, T/C [18] was 51.8%. For the same molecule, the viability, T/C [19] was 81.8%, the viability, T/C [20] was 79.2% and the viability, T/C [21] was 95.3%. The viability, T/C [22] was 63.2%, the viability, T/C [23] was 58.6% and the viability, T/C [24] was 42.8%. The viability, T/C [25] was 81.7%, the viability, T/C [26] was 89.3% and the viability, T/C [27] was 72.1%. The viability, T/C [28] was 59.2%, the viability, T/C [29] was 53.9% and the viability, T/C [30] was 56.5%. It also gave a viability, T/C [31] of 107%, a viability, T/C [32] of 99.2% and a viability, T/C [33] of 111%. For the same molecule, the viability, T/C [34] was 62.4%, the viability, T/C [35] was 61% and the viability, T/C [36] was 48.4%.
